Source: ChEMBL document CHEMBL3868639, “Great Therapeutic Potential of Peptidylarginine Deiminase 4 (PAD4) Inhibitors: Treatment of Rheumatoid Arthritis, Epigenetic Tools, Regulation of Pluripotency in Stem Cells, and More” (ACS Med Chem Lett, 2017)

Target: Protein-arginine deiminase type-2 (Homo sapiens, UniProt Q9Y2J8)
Assay: Inhibition of N-terminal 6His/FLAG-tagged recombinant human PAD2 (1 to 665 residues) expressed in baculovirus infected sf9 cells using N-a-benzoyl-L-arginine ethyl ester as substrate preincubated for 30 mins followed by substrate addition after 90 mins by DTT-based fluorescence assay

Sequence of Protein-arginine deiminase type-2 (Q9Y2J8 whole entry, the tested form may be a part): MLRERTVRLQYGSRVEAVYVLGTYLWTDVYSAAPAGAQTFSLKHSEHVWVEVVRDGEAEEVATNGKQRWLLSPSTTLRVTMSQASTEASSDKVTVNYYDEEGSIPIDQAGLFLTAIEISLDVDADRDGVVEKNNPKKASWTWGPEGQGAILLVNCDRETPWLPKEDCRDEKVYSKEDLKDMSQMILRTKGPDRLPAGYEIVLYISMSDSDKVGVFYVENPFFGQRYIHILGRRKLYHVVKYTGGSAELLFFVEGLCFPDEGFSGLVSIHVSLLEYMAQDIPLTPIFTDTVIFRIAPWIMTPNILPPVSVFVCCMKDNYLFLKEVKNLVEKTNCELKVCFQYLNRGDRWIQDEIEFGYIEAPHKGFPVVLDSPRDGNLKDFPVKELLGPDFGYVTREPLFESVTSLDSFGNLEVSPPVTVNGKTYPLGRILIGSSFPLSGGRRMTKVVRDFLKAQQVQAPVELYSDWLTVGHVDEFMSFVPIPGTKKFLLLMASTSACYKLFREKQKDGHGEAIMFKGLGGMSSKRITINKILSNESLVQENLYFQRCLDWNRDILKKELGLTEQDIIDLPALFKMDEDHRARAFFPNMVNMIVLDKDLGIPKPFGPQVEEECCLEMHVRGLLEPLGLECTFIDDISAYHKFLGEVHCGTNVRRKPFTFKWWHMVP

SMILES | IC50
COc1cc(C(=O)N2CCC[C@@H](N)C2)cc2nc(-c3cc4ccccc4n3CC3CC3)n(C)c12 | 10 to 79.4 µM
Cn1c(-c2cc3ccccc3n2CC2CC2)nc2cc(C(=O)N3CCC[C@@H](N)C3)ccc21 | 10 to 79.4 µM
COc1cc(C(=O)N2CC[C@@H](O)[C@@H](N)C2)cc2nc(-c3cc4ccccc4n3CC(F)(F)F)n(C)c12 | 10 to 79.4 µM
COc1cc(C(=O)N2CCC[C@@H](N)C2)cc2nc(-c3cc4ccccc4n3CC(F)(F)F)n(C)c12 | 10 to 79.4 µM
